Where “and” joins values, the source holds several entries; their conditions need not be identical. Identical values can stand only once.
Test system: 596521-263-R-J1-PDC complex spheroid growth
Assay: Anticancer human tumor 596521-263-R-J1-PDC patient-derived soft tissue sarcoma cell line growth inhibition [Asc]
Conditions: for viability, T/C: stronger effect = lower value
Procedure, shortened: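 Complex spheroids combining tumor cells with HUVEC endothelial cells and human MSCs, at 37 degrees C, 5% CO2; agents tested alone or combined, half-log dilutions from at or near clinical Cmax, or 10 microM if Cmax unknown.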

[1] = curve of first compound, second compound 0.0316 µM
[2] = curve of first compound, second compound 0.1 µM
[3] = curve of first compound, second compound 0.316 µM
[4] = curve of first compound, second compound 1 µM
[5] = curve of first compound, second compound 3.16 µM
[6] = curve of first compound, second compound 10 µM
[7] = second compound 0.0316 µM, first compound 0.00949 µM
[8] = second compound 0.0316 µM, first compound 0.03 µM
[9] = second compound 0.0316 µM, first compound 0.0949 µM
[10] = second compound 0.0316 µM, first compound 0.3 µM
[11] = second compound 0.1 µM, first compound 0.00949 µM
[12] = second compound 0.1 µM, first compound 0.03 µM
[13] = second compound 0.1 µM, first compound 0.0949 µM
[14] = second compound 0.1 µM, first compound 0.3 µM
[15] = second compound 0.316 µM, first compound 0.00949 µM
[16] = second compound 0.316 µM, first compound 0.03 µM
[17] = second compound 0.316 µM, first compound 0.0949 µM
[18] = second compound 0.316 µM, first compound 0.3 µM
[19] = second compound 1 µM, first compound 0.00949 µM
[20] = second compound 1 µM, first compound 0.03 µM
[21] = second compound 1 µM, first compound 0.0949 µM
[22] = second compound 1 µM, first compound 0.3 µM
[23] = second compound 3.16 µM, first compound 0.00949 µM
[24] = second compound 3.16 µM, first compound 0.03 µM
[25] = second compound 3.16 µM, first compound 0.0949 µM
[26] = second compound 3.16 µM, first compound 0.3 µM
[27] = second compound 10 µM, first compound 0.00949 µM
[28] = second compound 10 µM, first compound 0.03 µM
[29] = second compound 10 µM, first compound 0.0949 µM
[30] = second compound 10 µM, first compound 0.3 µM
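Further: spheroids exposed to compounds for 7 days.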

NC(=O)C(=Cn1cnc(-c2cc(C(F)(F)F)cc(C(F)(F)F)c2)n1)c1cncnc1 + Cc1c(S(C)(=O)=O)c(-c2cc(F)cc(N3CCN(c4ccc(NS(=O)(=O)c5ccc(NC(CCN6CCC(C(=O)OCCCP(=O)(O)O)CC6)CSc6ccccc6)c(S(=O)(=O)C(F)(F)F)c5)cc4)CC3)c2)c(-c2ccc(Cl)cc2)n1C(C)C
IC50 [1]: 27.2 nM
IC50 [2]: 25.1 nM
IC50 [3]: 18.8 nM
IC50 [4]: 15.5 nM
IC50 [5]: 8.57 nM
IC50 [6]: < 0.949 nM
viability, T/C (second compound 0.0316 µM, first compound 0.000949 µM): 98.4%
viability, T/C (second compound 0.0316 µM, first compound 0.003 µM): 101%
viability, T/C [7]: 80.7%
viability, T/C [8]: 49.4%
viability, T/C [9]: 10.3%
viability, T/C [10]: 4.54%
viability, T/C (second compound 0.1 µM, first compound 0.000949 µM): 84.2%
viability, T/C (second compound 0.1 µM, first compound 0.003 µM): 94.9%
viability, T/C [11]: 71.8%
viability, T/C [12]: 48.5%
viability, T/C [13]: 6.86%
viability, T/C [14]: 2.64%
viability, T/C (second compound 0.316 µM, first compound 0.000949 µM): 94.8%
viability, T/C (second compound 0.316 µM, first compound 0.003 µM): 82.6%
viability, T/C [15]: 71.9%
viability, T/C [16]: 36.9%
viability, T/C [17]: 5.33%
viability, T/C [18]: 1.97%
viability, T/C (second compound 1 µM, first compound 0.000949 µM): 76%
viability, T/C (second compound 1 µM, first compound 0.003 µM): 80.1%
viability, T/C [19]: 57.9%
viability, T/C [20]: 37.2%
viability, T/C [21]: 3.95%
viability, T/C [22]: 1.71%
viability, T/C (second compound 3.16 µM, first compound 0.000949 µM): 68.7%
viability, T/C (second compound 3.16 µM, first compound 0.003 µM): 57.7%
viability, T/C [23]: 50.6%
viability, T/C [24]: 21.3%
viability, T/C [25]: 3.51%
viability, T/C [26]: 1.52%
viability, T/C (second compound 10 µM, first compound 0.000949 µM): 47.4%
viability, T/C (second compound 10 µM, first compound 0.003 µM): 51.3%
viability, T/C [27]: 35.7%
viability, T/C [28]: 23.6%
viability, T/C [29]: 3.04%
viability, T/C [30]: 1.13%

O=C(c1cc(Cc2n[nH]c(=O)c3ccccc23)ccc1F)N1CCN(C(=O)C2CC2)CC1
viability, T/C (compound 0.0316 µM): 102% and 103% and 85.9%
viability, T/C (compound 0.1 µM): 101% (2×) and 93.1%
viability, T/C (compound 0.316 µM): 94.2% and 92.7% and 111%
viability, T/C (compound 1 µM): 90.9% and 103% and 93.6%
viability, T/C (compound 3.16 µM): 89.6% and 92.4% and 71.7%
viability, T/C (compound 10 µM): 59.9% and 61.9% and 50.4%
IC50 (curve of compound): > 10000 nM

Cc1nc(N2CCC3(CC2)COC(C)C3N)c(CO)nc1Sc1ccnc(N)c1Cl (stereo not drawn) + Cc1c(S(C)(=O)=O)c(-c2cc(F)cc(N3CCN(c4ccc(NS(=O)(=O)c5ccc(NC(CCN6CCC(C(=O)OCCCP(=O)(O)O)CC6)CSc6ccccc6)c(S(=O)(=O)C(F)(F)F)c5)cc4)CC3)c2)c(-c2ccc(Cl)cc2)n1C(C)C
IC50 [1]: > 3000 nM
IC50 [2]: > 3000 nM
IC50 [3]: > 3000 nM
IC50 [4]: 2020 nM
IC50 [5]: 443 nM
IC50 [6]: 97.7 nM
viability, T/C [7]: 85.5%
viability, T/C [8]: 99.6%
viability, T/C [9]: 77.5%
viability, T/C [10]: 89%
viability, T/C (second compound 0.0316 µM, first compound 0.949 µM): 82.9%
viability, T/C (second compound 0.0316 µM, first compound 3 µM): 61.9%
viability, T/C [11]: 87.8%
viability, T/C [12]: 100%
viability, T/C [13]: 87.2%
viability, T/C [14]: 93.7%
viability, T/C (second compound 0.1 µM, first compound 0.949 µM): 84.6%
viability, T/C (second compound 0.1 µM, first compound 3 µM): 59.5%
viability, T/C [15]: 86.4%
viability, T/C [16]: 93.7%
viability, T/C [17]: 87.2%
viability, T/C [18]: 81.4%
viability, T/C (second compound 0.316 µM, first compound 0.949 µM): 68.9%
viability, T/C (second compound 0.316 µM, first compound 3 µM): 59.7%
viability, T/C [19]: 90.6%
viability, T/C [20]: 85%
viability, T/C [21]: 73.4%
viability, T/C [22]: 76.7%
viability, T/C (second compound 1 µM, first compound 0.949 µM): 64.5%
viability, T/C (second compound 1 µM, first compound 3 µM): 42.1%
viability, T/C [23]: 62.6%
viability, T/C [24]: 63.2%
viability, T/C [25]: 57.4%
viability, T/C [26]: 50%
viability, T/C (second compound 3.16 µM, first compound 0.949 µM): 47.3%
viability, T/C (second compound 3.16 µM, first compound 3 µM): 36.5%
viability, T/C [27]: 48.5%
viability, T/C [28]: 54.4%
viability, T/C [29]: 52.2%
viability, T/C [30]: 42.6%
viability, T/C (second compound 10 µM, first compound 0.949 µM): 36%
viability, T/C (second compound 10 µM, first compound 3 µM): 28.2%

C#Cc1c(F)ccc2cc(O)cc(-c3ncc4c(N5CC6CCC(C5)N6)nc(OCC56CCCN5CC(F)C6)nc4c3F)c12 (stereo not drawn)
viability, T/C (compound 0.0316 µM): 102% and 104% (2×)
viability, T/C (compound 0.1 µM): 87% and 90.2% and 98.9%
viability, T/C (compound 0.316 µM): 99.2% and 109% and 98.2%
viability, T/C (compound 1 µM): 102% (2×) and 112%
viability, T/C (compound 3.16 µM): 100% and 94.5% and 103%
viability, T/C (compound 10 µM): 93.4% and 85.1% and 88.1%
IC50 (curve of compound): > 10000 nM

Reference: PubChem BioAssay AID1963449 (Molecular Pharmacology Branch, DTP, NCI, 2024)
